Reference: patent USRE38009E1, “Zeaxanthin formulations for human ingestion” (Zeavision LLC, priority 1995, dated 2003)

Assay: Storage of purified zeaxanthin powder for roughly six months unprotected, chiral column chromatography analysis
Format: physicochemical
Conditions: relatively unprotected, normal refrigeration, no anti-oxidants, no protection from atmospheric oxygen, fresh preparation at least 98% pure
Description: After roughly six months of storage in a relatively unprotected state (usually under normal refrigeration with moderately frequent removal; without containing any anti-oxidants, and without taking any precautions to prevent contact by atmospheric oxygen), a sample of the zeaxanthin preparation was sent for stereoisomeric analysis to Prof.

## CC1=C(/C=C/C(C)=C/C=C/C(C)=C/C=C/C=C(C)/C=C/C=C(C)/C=C/C2=C(C)C[C@@H](O)CC2(C)C)C(C)(C)C[C@H](O)C1 [Zeaxanthin, zeaxanthin]
  Zeaxanthin content of preparation after storage: 92%
